Where a SMILES comes first, the peptide text is derived from it. [ ]: non-standard residue; d: D form. Nva = CCC[C@H](N)C(=O)O; Sar = CNCC(=O)O
System: Human Microvascular Endothelial Cells (HMVEC)
Assay: Human microvascular endothelial cell (HMVEC) migration assay, modified Boyden chamber
Assay type: cell-based
Settings: migration stimulated with 15 ng/ml bFGF/VEGF, compared to positive control
Method: The human microvascular endothelial (HMVEC) migration assay was run according to the procedure of S. S. Tolsma, O. V. Volpert, D. J. Good, W. F. Frazier, P. J. Polverini and N. Bouck, J. Cell Biol. 122, 497-511 (1993).
The HMVEC migration assay was carried out using Human Microvascular Endothelial Cells-Dermal (single donor) and Human Microvascular Endothelial Cells, (neonatal). The BCE or HMVEC cells were starved overnight in DME containing 0.1% bovine serum albumin (BSA). Cells were then harvested with trypsin and resuspended in DME with 0.1% BSA at a concentration of 1.5×10^6 cells per ml. Cells were added to the bottom of a 48 well modified Boyden chamber (Nucleopore Corporation, Cabin John, Md.). The chamber was assembled and inverted, and cells were allowed to attach for 2 hours at 37° C. to polycarbonate chemotaxis membranes (5 μm pore size) that had been soaked in 0.1% gelatin overnight and dried. The chamber was then reinverted, and test substances (total volume of 50 μl), including activators, 15 ng/ml bFGF/VEGF, were added to the wells of the upper chamber. The apparatus was incubated for 4 hours at 37° C. Membranes were recovered, fixed and stained (Diff Quick, Fisher Scientific) and the number of cells that had migrated to the upper chamber per […] high power fields counted. Background migration to DME+0.1 BSA was subtracted and the data reported as the number of cells migrated per 10 high power fields (400×) or, when results from multiple experiments were combined, as the percent inhibition of migration compared to a positive control.

Molecule: N-Succinyl-Sar-Gly-Val-D-Ile-Thr-Nva-Ile-Arg-ProNHCH2CH3 [Example 54]
- % Inhib. @ 20 nM: 81.3%

Molecule: H-Sar-Gly-Val-D-Ile-Thr-Nva-Ile-Arg-ProNHCH2CH3 [Example 66]
- % Inhib. @ 20 nM: 76.1%

Molecule: N-Shikimyl-Sar-Gly-Val-D-Ile-Thr-Nva-Ile-Arg-ProNHCH2CH3 [Example 58]
- % Inhib. @ 20 nM: 68.8%

Molecule: N-(2-Furoyl)-Sar-Gly-Val-D-Ile-Thr-Nva-Ile-Arg-ProNHCH2CH3 [Example 59]
- % Inhib. @ 20 nM: 82.3%

Molecule: N-(2-Me-Nicotinyl)-Sar-Gly-Val-D-Ile-Thr-Nva-Ile-Arg-ProNHCH2CH3 [Example 53]
- % Inhib. @ 20 nM: 76.7%

Molecule: N-Ac-Sar-Gly-Val-D-Ile-Thr-Nva-Ile-Arg-ProNHCH(CH3)2 [Example 4]
- % Inhib. @ 20 nM: 71.3%

Molecule: N-Butyryl-Sar-Gly-Val-D-Ile-Thr-Nva-Ile-Arg-ProNHCH2CH3 [Example 60]
- % Inhib. @ 20 nM: 75.3%

Molecule: N-Ac-Sar-Gly-Val-D-Ile-Thr-Gln-Ile-Arg-ProNHCH2CH3 [Example 43]
- % Inhib. @ 10 nM: 94.1%

Molecule: N-Propionyl-Sar-Gly-Val-D-Ile-Thr-Nva-Ile-Arg-ProNHCH2CH3 [Example 56]
- % Inhib. @ 20 nM: 49.9%

Molecule: N-Ac-Sar-Gly-Val-D-Ile-Thr-DNva-Ile-Arg-ProNHCH2CH3 [Example 42]
- % Inhib. @ 20 nM: 60.2%

Molecule: N-Ac-Sar-Gly-Val-D-Ile-Thr-Val-Ile-Arg-ProNHCH2CH3 (Ac-[Sar]GV[dI]TVIRP-NHEt) [Example 47]
- % Inhib. @ 20 nM: 69.7%

Molecule: N-Ac-Sar-Gly-Val-D-Ile-Thr-Met-Ile-Arg-ProNHCH2CH3 (Ac-[Sar]GV[dI]TMIRP-NHEt; SMILES CCNC(=O)[C@@H]1CCCN1C(=O)[C@H](CCCNC(=N)N)NC(=O)[C@@H](NC(=O)[C@H](CCSC)NC(=O)[C@@H](NC(=O)[C@H](NC(=O)[C@@H](NC(=O)CNC(=O)CN(C)C(C)=O)C(C)C)[C@H](C)CC)[C@@H](C)O)[C@@H](C)CC) [Example 51]
- % Inhib. @ 20 nM: 67.0%

Molecule: N-Ac-Sar-Gly-Val-D-Ile-Thr-Allylgly-Ile-Arg-ProNHCH2CH3 [Example 49]
- % Inhib. @ 20 nM: 83.4%

Molecule: CCC[C@H](NC(=O)[C@@H](NC(=O)[C@H](NC(=O)[C@@H](NC(=O)CNC(=O)CN(C)C(C)=O)C(C)C)[C@H](C)CC)[C@@H](C)O)C(=O)N[C@H](C(=O)N[C@@H](CCCNC(=N)N)C(=O)N1CCC[C@H]1C(=O)NCC)[C@@H](C)CC [Example 1, N-Ac-Sar-Gly-Val-D-Ile-Thr-Nva-Ile-Arg-ProNHCH2CH3] (Ac-[Sar]GV[dI]T[Nva]IRP-NHEt)
- % Inhib. @ 10 nM: 76.9%
- % Inhib. @ 20 nM: 87.3%

Molecule: N-Nicotinyl-Sar-Gly-Val-D-Ile-Thr-Nva-Ile-Arg-ProNHCH2CH3 [Example 55]
- % Inhib. @ 20 nM: 59.2%

Molecule: N-Ac-Sar-Gly-Val-D-Ile-Thr-Nva-Ile-Arg-ProNHethyl-(1-pyrrolidine) [Example 5]
- % Inhib. @ 10 nM: 87.2%

Molecule: N-Ac-Sar-Gly-Val-D-Ile-Thr-Ala-Ile-Arg-ProNHCH2CH3 [Example 46]
- % Inhib. @ 20 nM: 77.5%

Molecule: N-Ac-Sar-Gly-Val-D-Val-Thr-Nva-Ile-Arg-ProNHCH2CH3 [Example 18]
- % Inhib. @ 10 nM: 51.4%

Molecule: N-Ac-Sar-Gly-Val-D-Cha-Thr-Nva-Ile-Arg-ProNHCH2CH3 [Example 28]
- % Inhib. @ 10 nM: 47.0%

Molecule: N-(Tetrahydro-2-furoyl)-Sar-Gly-Val-D-Ile-Thr-Nva-Ile-Arg-ProNHCH2CH3 [Example 61]
- % Inhib. @ 10 nM: 83.7%

Molecule: N-Ac-Sar-Gly-Val-D-Ile-Thr-Nva-Ile-Arg-ProNHCH2CH2OCH3 [Example 11]
- % Inhib. @ 20 nM: 70.4%

Molecule: N-MeOacetyl-Sar-Gly-Val-D-Ile-Thr-Nva-Ile-Arg-ProNHCH2CH3 [Example 57]
- % Inhib. @ 20 nM: 56.6%
